T/C data for 32 molecules are collected here from PubChem BioAssay AID330 (DTP/NCI, 2004).

Each structure is given as a SMILES string. Where “and” joins values, the source holds several entries; their conditions need not be identical. Identical values can stand only once. Toxic doses and inconclusive results are not listed.

The assay concerns P388 leukemia ip, CD2F1 mice, survival T/C. Description: NCI In Vivo Anticancer Drug Screen. Data for tumor model P388 Leukemia (intraperitoneal) in CD2F1 (CDF1) mice. The note with it: endpoint: median survival time, higher = longer survival. The gist of the method: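 Mice carrying the transplanted tumor received test compound or vehicle. Survival was recorded in each group, and the value is the treated-group measurement divided by that of the vehicle-treated control group.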

The mark [1] stands for this setting: dose: 60.0 mg/kg/injection, schedule: Q01DX005 (ip), vehicle: saline with Tween-80.
The mark [2] stands for this setting: dose: 120.0 mg/kg/injection, schedule: Q01DX005 (ip), vehicle: saline with Tween-80.
Where [3] appears, read: dose: 240.0 mg/kg/injection, schedule: Q01DX005 (ip), vehicle: saline with Tween-80.
Setting [4] is: dose: 25.0 mg/kg/injection, schedule: Q01DX009 (ip), vehicle: saline with Tween-80.
Where [5] appears, read: dose: 50.0 mg/kg/injection, schedule: Q01DX009 (ip), vehicle: saline with Tween-80.
[6] abbreviates: dose: 100.0 mg/kg/injection, schedule: Q01DX009 (ip), vehicle: saline with Tween-80.
The mark [7] stands for this setting: dose: 200.0 mg/kg/injection, schedule: Q01DX009 (ip), vehicle: saline with Tween-80.
Setting [8] is: dose: 50.0 mg/kg/injection, schedule: Q01DX005 (ip), vehicle: saline with Tween-80.
Where [9] appears, read: dose: 100.0 mg/kg/injection, schedule: Q01DX005 (ip), vehicle: saline with Tween-80.
[10] abbreviates: dose: 200.0 mg/kg/injection, schedule: Q01DX005 (ip), vehicle: saline with Tween-80.
Where [11] appears, read: dose: 100.0 mg/kg/injection, schedule: Q04DX002 (ip), vehicle: saline.
[12] abbreviates: dose: 200.0 mg/kg/injection, schedule: Q04DX002 (ip), vehicle: saline.
[13] abbreviates: dose: 50.0 mg/kg/injection, schedule: Q01DX009 (ip), vehicle: saline.
Where [14] appears, read: dose: 100.0 mg/kg/injection, schedule: Q01DX009 (ip), vehicle: saline.
Setting [15] is: dose: 200.0 mg/kg/injection, schedule: Q01DX009 (ip), vehicle: saline.

On to `CC(N)C(O)C(C)C(=O)O` (stereo not given), for which the T/C is 111 % of control (dose: 12.5 mg/kg/injection, schedule: Q01DX009 (ip), vehicle: water); 107 % of control (dose: 25.0 mg/kg/injection, schedule: Q01DX009 (ip), vehicle: water); 107 % of control (dose: 50.0 mg/kg/injection, schedule: Q01DX009 (ip), vehicle: water); 98 % of control (dose: 100.0 mg/kg/injection, schedule: Q01DX009 (ip), vehicle: water); 102 % of control (dose: 200.0 mg/kg/injection, schedule: Q01DX009 (ip), vehicle: water).

Take `OC12CC3C4CC(O1)C1C4CC3C12` (stereo not given): the T/C by setting is: (dose: 60.0 mg/kg/injection, schedule: Q01DX005 (ip), vehicle: saline) 102 % of control; (dose: 120.0 mg/kg/injection, schedule: Q01DX005 (ip), vehicle: saline) 109 % of control; (dose: 240.0 mg/kg/injection, schedule: Q01DX005 (ip), vehicle: saline) 109 % of control.

Take `O=C(CCCl)Nc1ccc(C(=O)CCc2cccc(NC(=O)CCCl)c2)cc1`: the T/C runs as follows: under setting [1], 100 % of control; under setting [2], 97 % of control; under setting [3], 89 % of control.

As for `CC1=C(C(N)=O)C(c2ccc(O)cc2)NC(=S)N1` (stereo not given), the T/C (dose: 60.0 mg/kg/injection, schedule: Q01DX005 (ip), vehicle: Klucel (hydroxypropylcellulose) (HPC)) is 101 % of control; the T/C (dose: 120.0 mg/kg/injection, schedule: Q01DX005 (ip), vehicle: Klucel (hydroxypropylcellulose) (HPC)) is 101 % of control; the T/C (dose: 240.0 mg/kg/injection, schedule: Q01DX005 (ip), vehicle: Klucel (hydroxypropylcellulose) (HPC)) is 101 % of control.

As for `CC(=O)CC(=O)c1ccc(C)cc1.CC(=O)CC(=O)c1ccc(C)cc1.[Cu]`, the T/C under setting [4] is 98 % of control; the T/C under setting [5] is 108 % of control and 113 % of control.

`CCN1CCc2cccc3c2C1c1ccccc1CC3` (stereo not given): the T/C (dose: 50.0 mg/kg/injection, schedule: Q01DX001 (ip), vehicle: saline with Tween-80) is 100 % of control and the T/C (dose: 100.0 mg/kg/injection, schedule: Q01DX001 (ip), vehicle: saline with Tween-80) is 101 % of control.

Consider `Nc1nnc(-c2ccc(Nc3nc4ccccc4[nH]3)c([N+](=O)[O-])c2)s1`, for which the T/C runs as follows: under setting [1], 98 % of control; under setting [2], 101 % of control.

In the case of `CN1CC(=O)N=C1N`, the T/C reads like this: (dose: 100.0 mg/kg/injection, schedule: Q04DX003 (ip), vehicle: Klucel (hydroxypropylcellulose) (HPC)) 100 % of control; (dose: 200.0 mg/kg/injection, schedule: Q04DX003 (ip), vehicle: Klucel (hydroxypropylcellulose) (HPC)) 100 % of control; (dose: 400.0 mg/kg/injection, schedule: Q04DX003 (ip), vehicle: Klucel (hydroxypropylcellulose) (HPC)) 105 % of control.

Take `CCC(=O)Nc1ccc(C(=O)C(C)O[N+](=O)[O-])cc1` (stereo not given): the T/C by setting is: under setting [4], 98 % of control; under setting [5], 99 % of control; under setting [6], 100 % of control.

Regarding `CCOC(=O)C(C)(C)Oc1ccc(Cl)cc1`, the T/C by setting is: under setting [5], 100 % of control; under setting [6], 93 % of control; under setting [7], 112 % of control.

For the molecule `CN(C)c1ccc(C(c2cc3c(cc2O)OCO3)N2CCCCC2)cc1` (stereo not given), the T/C is, setting by setting: under setting [1], 113 % of control; under setting [2], 121 % of control.

As to `c1ccc2c3cc(cc2c1)OCCOCCOCCOCCOCCOc1ccc2ccccc2c1-3`, the T/C is 101 % of control under setting [5], 101 % of control under setting [6] and 103 % of control under setting [7].

For `CC1=CC(=Nc2ccc(N(C)C)cc2)C=CC1=O`, the T/C runs as follows: (dose: 3.13 mg/kg/injection, schedule: Q01DX009 (ip), vehicle: saline with Tween-80) 104 % of control and 115 % of control; (dose: 6.25 mg/kg/injection, schedule: Q01DX009 (ip), vehicle: saline with Tween-80) 107 % of control and 115 % of control; (dose: 12.5 mg/kg/injection, schedule: Q01DX009 (ip), vehicle: saline with Tween-80) 111 % of control and 114 % of control.

In the case of `Cc1ccc(S(=O)(=O)CC(=O)CC(=O)C(C#N)c2cccc(Cl)c2)cc1` (stereo not given), the T/C by setting is: under setting [8], 100 % of control; under setting [9], 99 % of control; under setting [10], 107 % of control.

Regarding `C=C1CC2(CCCCC2Cc2ccccc2)OC1=O` (stereo not given), the T/C by setting is: under setting [11], 100 % of control; under setting [12], 101 % of control; (dose: 400.0 mg/kg/injection, schedule: Q04DX002 (ip), vehicle: saline) 99 % of control.

Regarding `O=C1OC2(CCCCC2)N(c2ccccc2)C(=O)/C1=C/Nc1ccc(Cl)cc1`, the T/C reads like this: under setting [5], 98 % of control; under setting [6], 99 % of control; under setting [7], 92 % of control.

`S=C(CC(=S)N1CCOCC1)N1CCOCC1`: the T/C was 103 % of control under setting [1], 89 % of control under setting [2] and 97 % of control under setting [3].

As to `C=C1CC2(CCCC3(C)CCC(C(C)C)CC32C)OC1=O` (stereo not given), the T/C (dose: 100.0 mg/kg/injection, schedule: Q01DX001 (ip), vehicle: saline) is 101 % of control; the T/C (dose: 200.0 mg/kg/injection, schedule: Q01DX001 (ip), vehicle: saline) is 106 % of control; the T/C (dose: 400.0 mg/kg/injection, schedule: Q01DX001 (ip), vehicle: saline) is 110 % of control.

As to `CCN(CC)CCCNc1ccc([N+](=O)[O-])c2no[n+]([O-])c12`, the T/C is 99 % of control under setting [13] and 100 % of control under setting [14].

With `NNC(=O)CC(N)C(=O)O` (stereo not given), the T/C was 100 % of control (dose: 25.0 mg/kg/injection, schedule: Q01DX009 (ip), vehicle: saline); 110 % of control under setting [5]; 105 % of control and 122 % of control under setting [13]; 108 % of control under setting [6]; 109 % of control and 122 % of control under setting [14]; 117 % of control under setting [7]. Besides, the T/C is 116 % of control under setting [15] and 107 % of control (dose: 400.0 mg/kg/injection, schedule: Q01DX009 (ip), vehicle: saline).

Regarding `CC(C)n1cnc2c(Cl)ncnc21`, the T/C is 100 % of control under setting [4], 104 % of control under setting [5] and 95 % of control under setting [6].

Take `COc1cc(/C(C)=C\CP(=O)(c2ccccc2)c2ccccc2)c(C(=O)O)cc1C`: the T/C is, setting by setting: under setting [8], 106 % of control; under setting [9], 106 % of control; under setting [10], 103 % of control.

Turning to `CCC(C)(C)C(=O)O`, the T/C was 100 % of control under setting [6] and 100 % of control under setting [7].

Turning to `Cc1ccc(S(=O)(=O)NC(=O)c2ccccc2)cc1`, the T/C under setting [6] was 100 % of control; the T/C under setting [7] was 100 % of control; the T/C (dose: 400.0 mg/kg/injection, schedule: Q01DX009 (ip), vehicle: saline with Tween-80) was 91 % of control.

In the case of `CNCS(=O)(=O)O`, the T/C runs as follows: under setting [13], 106 % of control; under setting [14], 101 % of control; under setting [15], 93 % of control.

As to `CSC(SC)=C1CCCC(=C(SC)SC)C1=O`, the T/C is 100 % of control under setting [8], 104 % of control under setting [9] and 99 % of control under setting [10].

Turning to `CO/C1=C\C(C)=C\C(C)C(O)C(C)C/C(C)=C/C=C/C(OC)C(C(C)C(O)C(C)C2(O)CC(O)C(C)C(C(C)C)O2)OC1=O` (stereo not given), the T/C is, setting by setting: (dose: 1.25 mg/kg/injection, schedule: Q01DX005 (ip), vehicle: other) 104 % of control; (dose: 2.5 mg/kg/injection, schedule: Q01DX005 (ip), vehicle: other) 104 % of control; (dose: 5.0 mg/kg/injection, schedule: Q01DX005 (ip), vehicle: other) 113 % of control.

On to `CC([NH-])C[NH-].O=C(O)C(=O)O.[Pt+2]`, for which the T/C is 151 % of control (dose: 6.25 mg/kg/injection, schedule: Q04DX002 (ip), vehicle: saline with Tween-80) and 150 % of control (dose: 6.25 mg/kg/injection, schedule: Q04DX002 (ip), vehicle: saline).

With `N/N=C(/N)C1=NOCC1`, the T/C is 114 % of control under setting [11] and 106 % of control under setting [12].

As to `Nc1ccc(Cl)cc1C(=O)c1ccccc1Cl`, the T/C is, setting by setting: under setting [1], 96 % of control; under setting [2], 96 % of control; under setting [3], 90 % of control.

In the case of `N#CC(C#N)=Cc1ccc(N2CCCCC2)cc1`, the T/C runs as follows: under setting [13], 87 % of control; under setting [14], 88 % of control; under setting [15], 100 % of control.

On to `COC1=CC(=O)C(CC=C(C)C)=CC1=O`, for which the T/C runs as follows: (dose: 50.0 mg/kg/injection, schedule: Q01DX005 (ip), vehicle: Klucel (hydroxypropylcellulose) (HPC)) 100 % of control; (dose: 100.0 mg/kg/injection, schedule: Q01DX005 (ip), vehicle: Klucel (hydroxypropylcellulose) (HPC)) 102 % of control; (dose: 200.0 mg/kg/injection, schedule: Q01DX005 (ip), vehicle: Klucel (hydroxypropylcellulose) (HPC)) 105 % of control.
